From patent publication US11078228B2, “Ectonucleotidase inhibitors and methods of use thereof” (Calithera Biosciences, Inc., priority 2018, dated 2021) come the findings set out here.

The structures appear in SMILES notation.

Sequence of recombinant CD73 (P21589 27-547): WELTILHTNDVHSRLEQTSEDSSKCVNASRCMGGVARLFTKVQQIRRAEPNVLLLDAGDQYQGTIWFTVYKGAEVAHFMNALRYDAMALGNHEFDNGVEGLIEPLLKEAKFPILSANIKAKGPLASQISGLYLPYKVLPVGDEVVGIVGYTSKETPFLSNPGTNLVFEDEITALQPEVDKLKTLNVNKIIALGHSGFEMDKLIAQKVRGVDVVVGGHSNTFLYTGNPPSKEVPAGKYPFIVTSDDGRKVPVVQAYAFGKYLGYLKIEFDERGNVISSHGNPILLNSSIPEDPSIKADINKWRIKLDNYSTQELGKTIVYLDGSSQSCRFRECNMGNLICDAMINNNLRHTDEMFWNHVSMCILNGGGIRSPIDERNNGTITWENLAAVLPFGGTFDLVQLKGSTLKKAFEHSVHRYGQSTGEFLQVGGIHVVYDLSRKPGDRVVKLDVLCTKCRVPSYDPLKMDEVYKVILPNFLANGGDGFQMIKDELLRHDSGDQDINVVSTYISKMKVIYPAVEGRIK

The target in the assay is recombinant CD73 (Homo sapiens (Human), UniProt P21589). Kind of assay: Assay 2: Inhibition of the CD73 enzyme in vitro (0.05 nM CD73, 1 hour 37° C., Malachite Green). In kind it is biochemical. The conditions noted are these: 0.05 nM CD73, 50 μM AMP, 1 hour at 37° C. The method in brief:
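Soluble recombinant CD73 reactions ran 1 hour at 37° C. Malachite Green was then added, and absorbance at 630 nm was read after 5 min at room temperature. Inorganic phosphate was quantified from a phosphate standard curve.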
`C#C[C@@]1(O)[C@@H](COC(Cc2ccsc2)(C(=O)O)C(=O)O)O[C@@H](n2cnc3c(NCCO)nc(Cl)nc32)[C@@H]1O` [Example 32, 2-(((2R,3S,4R,5R)-5-(2-chloro-6-((2-hydroxyethyl)amino)-9H-purin-9-yl)-3-ethynyl-3,4-dihydroxytetrahydrofuran-2-yl)methoxy)-2-(thiophen-3-ylmethyl)malonic acid]: the IC50 was found to be 3 nM.

Take `C#C[C@@]1(O)[C@@H](COC(Cc2ccccc2)(C(=O)O)C(=O)O)O[C@@H](n2cnc3ccc(C(F)(F)F)nc32)[C@@H]1O` [Example 125, 2-benzyl-2-(((2R,3S,4R,5R)-3-ethynyl-3,4-dihydroxy-5-(5-(trifluoromethyl)-3H-imidazo[4,5-b]pyridin-3-yl)tetrahydrofuran-2-yl)methoxy)malonic acid]: the IC50 was 235 nM.

Regarding `C#C[C@@]1(O)[C@@H](COC(Cc2ccc(-c3cccn(CCO)c3=O)cc2)(C(=O)O)C(=O)O)O[C@@H](n2cnc3c(N)nc(Cl)nc32)[C@@H]1O` [Example 21, 2-(((2R,3S,4R,5R)-5-(6-amino-2-chloro-9H-purin-9-yl)-3-ethynyl-3,4-dihydroxytetrahydrofuran-2-yl)methoxy)-2-(4-(1-(2-hydroxyethyl)-2-oxo-1,2-dihydropyridin-3-yl)benzyl)malonic acid], the IC50 turned out to be 0.3 nM.

For the compound `C#C[C@@]1(O)[C@@H](COC(Cc2ccccc2)(C(=O)O)C(=O)O)O[C@@H](n2cnc3c(CCCC(=O)O)nc(Cl)nc32)[C@@H]1O` [Example 163, 2-benzyl-2-(((2R,3S,4R,5R)-5-(6-(3-carboxypropyl)-2-chloro-9H-purin-9-yl)-3-ethynyl-3,4-dihydroxytetrahydrofuran-2-yl)methoxy)malonic acid], the IC50 is greater than 100 nM.

Consider `C#C[C@@]1(O)[C@@H](COC(C(=O)O)C(=O)O)O[C@@H](n2cnc3c(NCc4ccccc4)nc(Cl)nc32)[C@@H]1O` [Example 118, 2-(((2R,3S,4R,5R)-5-(6-(benzylamino)-2-chloro-9H-purin-9-yl)-3-ethynyl-3,4-dihydroxytetrahydrofuran-2-yl)methoxy)malonic acid], for which the IC50 amounted to 48 nM.

With `C#C[C@@]1(O)[C@@H](CO[C@](Cc2ccccc2)(C(=O)O)c2cscn2)O[C@@H](n2cnc3c(NC(C)C)nc(Cl)nc32)[C@@H]1O` (single isomer, unassigned) [Example 170], the IC50 was determined as 8 nM.

Take `C#C[C@@]1(O)[C@@H](COC(Cc2ccccc2)(C(=O)O)C(=O)O)O[C@@H](n2cnc3c(N(CC)CC)nc(Cl)nc32)[C@@H]1O` [Example 96, 2-benzyl-2-(((2R,3S,4R,5R)-5-(2-chloro-6-(diethylamino)-9H-purin-9-yl)-3-ethynyl-3,4-dihydroxytetrahydrofuran-2-yl)methoxy)malonic acid]: the half-inhibitory concentration (IC50) stood at 3 nM.

On to `C#C[C@@]1(O)[C@@H](CO[C@H](Cc2ccc(N3CCCNC3=O)cc2)C(=O)O)O[C@@H](n2cnc3c(N)nc(Cl)nc32)[C@@H]1O` (single isomer, unassigned) [Example 166], for which the IC50 came out at 145 nM.

With `C#C[C@@]1(O)[C@@H](COC(Cc2ccccc2)(C(=O)O)C(=O)O)O[C@@H](n2cnc3c(N[C@H](C)CO)nc(Cl)nc32)[C@@H]1O` [Example 98, 2-benzyl-2-(((2R,3S,4R,5R)-5-(2-chloro-6-(((R)-1-hydroxypropan-2-yl)amino)-9H-purin-9-yl)-3-ethynyl-3,4-dihydroxytetrahydrofuran-2-yl)methoxy)malonic acid], the IC50 is 2 nM.

For `C#C[C@@]1(O)[C@@H](COC(Cc2ccccc2)(C(=O)O)C(=O)O)O[C@@H](n2cnc3c(NC4CC4)nc(Cl)nc32)[C@@H]1O` [Example 83, 2-benzyl-2-(((2R,3S,4R,5R)-5-(2-chloro-6-(cyclopropylamino)-9H-purin-9-yl)-3-ethynyl-3,4-dihydroxytetrahydrofuran-2-yl)methoxy)malonic acid], the IC50 was found to be 1 nM.

As for `C#C[C@@]1(O)[C@@H](COC(Cc2cncs2)(C(=O)O)C(=O)O)O[C@@H](n2cnc3c(N)nc(Cl)nc32)[C@@H]1O` [Example 143, 2-(((2R,3S,4R,5R)-5-(6-amino-2-chloro-9H-purin-9-yl)-3-ethynyl-3,4-dihydroxytetrahydrofuran-2-yl)methoxy)-2-(thiazol-5-ylmethyl)malonic acid], the IC50 is 13 nM.

For the compound `C#C[C@@]1(O)[C@@H](COC(Cc2ccccc2)(C(=O)O)C(=O)O)O[C@@H](n2cnc3c(N4CC[C@@H](CO)C4)nc(Cl)nc32)[C@@H]1O` [Example 102, 2-benzyl-2-(((2R,3S,4R,5R)-5-(2-chloro-6-((R)-3-(hydroxymethyl)-pyrrolidin-1-yl)-9H-purin-9-yl)-3-ethynyl-3,4-dihydroxytetrahydrofuran-2-yl)methoxy)malonic acid], the IC50 was found to be 1 nM.

With `C#C[C@@]1(O)[C@@H](COC(Cc2ccccc2)(C(=O)O)C(=O)O)O[C@@H](n2cnc3c(NCC4(O)CC4)nc(Cl)nc32)[C@@H]1O` [Example 44, 2-benzyl-2-(((2R,3S,4R,5R)-5-(2-chloro-6-(((1-hydroxycyclopropyl)-methyl)amino)-9H-purin-9-yl)-3-ethynyl-3,4-dihydroxytetrahydrofuran-2-yl)methoxy)malonic acid], the IC50 was found to be 62 nM.

For the compound `C#C[C@@]1(O)[C@@H](COC(Cc2ccccc2)(C(=O)O)C(=O)OCC)O[C@@H](n2cnc3c(NCc4ccncc4)nc(Cl)nc32)[C@@H]1O` (stereo partly drawn) [Example 109, 2-benzyl-2-(((2R,3S,4R,5R)-5-(2-chloro-6-((pyridin-4-ylmethyl)amino)-9H-purin-9-yl)-3-ethynyl-3,4-dihydroxytetrahydrofuran-2-yl)methoxy)-3-ethoxy-3-oxopropanoic acid], the IC50 was determined as 284 nM.

For `C#C[C@@]1(O)[C@@H](COC(Cc2ccccc2)(C(=O)O)C(=O)O)O[C@@H](n2cnc3c(N(CCO)CCO)nc(Cl)nc32)[C@@H]1O` [Example 37, 2-benzyl-2-(((2R,3S,4R,5R)-5-(6-(bis(2-hydroxyethyl)amino)-2-chloro-9H-purin-9-yl)-3-ethynyl-3,4-dihydroxytetrahydrofuran-2-yl)methoxy)malonic acid], the IC50 was determined as 6 nM.

`C#C[C@@]1(O)[C@@H](COC(Cc2ccccc2)(C(=O)O)C(=O)O)O[C@@H](n2cnc3c(NCC(=O)O)nc(Cl)nc32)[C@@H]1O` [Example 76, 2-benzyl-2-(((2R,3S,4R,5R)-5-(6-((carboxymethyl)amino)-2-chloro-9H-purin-9-yl)-3-ethynyl-3,4-dihydroxytetrahydrofuran-2-yl)methoxy)malonic acid]: the IC50 came to 6 nM.

As for `C#C[C@@]1(O)[C@@H](COC(Cc2ccccc2)(C(=O)O)C(=O)O)O[C@@H](n2cnc3c(N(C)C)nc(Cl)nc32)[C@@H]1O` [Example 31, 2-benzyl-2-(((2R,3S,4R,5R)-5-(2-chloro-6-(dimethylamino)-9H-purin-9-yl)-3-ethynyl-3,4-dihydroxytetrahydrofuran-2-yl)methoxy)malonic acid], the IC50 came out at 2 nM.

In the case of `C#C[C@@]1(O)[C@@H](COC(Cc2ccccc2)(C(=O)O)C(=O)O)O[C@@H](n2cnc3c(NCc4cccc(F)c4)nc(Cl)nc32)[C@@H]1O` [Example 85, 2-benzyl-2-(((2R,3S,4R,5R)-5-(2-chloro-6-((3-fluorobenzyl)amino)-9H-purin-9-yl)-3-ethynyl-3,4-dihydroxytetrahydrofuran-2-yl)methoxy)malonic acid], the IC50 worked out at 2 nM.

Turning to `C#C[C@@]1(O)[C@@H](COC(Cc2ccccc2)(C(=O)O)C(=O)O)O[C@@H](n2cnc3c(NCc4ccccc4F)nc(Cl)nc32)[C@@H]1O` [Example 67, 2-benzyl-2-(((2R,3S,4R,5R)-5-(2-chloro-6-((2-fluorobenzyl)amino)-9H-purin-9-yl)-3-ethynyl-3,4-dihydroxytetrahydrofuran-2-yl)methoxy)malonic acid], the IC50 amounted to 0.8 nM.

Turning to `C#C[C@@]1(O)[C@@H](COC(Cc2ccc(OC(F)(F)F)cc2)(C(=O)O)c2cscn2)O[C@@H](n2cnc3c(NC(C)C)nc(Cl)nc32)[C@@H]1O` (stereo partly drawn) [Example 174, 2-(((2R,3S,4R,5R)-5-(2-chloro-6-(isopropylamino)-9H-purin-9-yl)-3-ethynyl-3,4-dihydroxytetrahydrofuran-2-yl)methoxy)-2-(thiazol-4-yl)-3-(4-(trifluoromethoxy)phenyl)propanoic acid], the IC50 came to 17 nM.

Turning to `C#C[C@@]1(O)[C@@H](COC(Cc2ccnc(Cl)c2)(C(=O)O)C(=O)O)O[C@@H](n2cnc3c(N)nc(Cl)nc32)[C@@H]1O` [Compound 5, 2-(((2R,3S,4R,5R)-5-(6-amino-2-chloro-9H-purin-9-yl)-3-ethynyl-3,4-dihydroxytetrahydrofuran-2-yl)methoxy)-2-((2-chloropyridin-4-yl)methyl)malonic acid], the IC50 came to 4 nM.

`C#C[C@@]1(O)[C@@H](COC(Cc2ccccc2)(C(=O)O)C(=O)O)O[C@@H](n2cnc3c(NCCc4ccccc4)nc(Cl)nc32)[C@@H]1O` [Example 70, 2-benzyl-2-(((2R,3S,4R,5R)-5-(2-chloro-6-(phenethylamino)-9H-purin-9-yl)-3-ethynyl-3,4-dihydroxytetrahydrofuran-2-yl)methoxy)malonic acid]: the IC50 was determined as 1 nM.

For the compound `C#C[C@@]1(O)[C@@H](COC(Cc2cccs2)(C(=O)O)C(=O)O)O[C@@H](n2cnc3c(N)nc(Cl)nc32)[C@@H]1O` [Example 128, 2-(((2R,3S,4R,5R)-5-(6-amino-2-chloro-9H-purin-9-yl)-3-ethynyl-3,4-dihydroxytetrahydrofuran-2-yl)methoxy)-2-(thiophen-2-ylmethyl)malonic acid], the IC50 stood at 6 nM.

On to `C#C[C@@]1(O)[C@@H](COC(Cc2ccccc2)(C(=O)O)C(=O)O)O[C@@H](n2cnc3c(N(C)C)nc(Cl)nc32)[C@@H]1O` [Example 89, 2-benzyl-2-(((2R,3S,4R,5R)-5-(2-chloro-6-(dimethylamino)-9H-purin-9-yl)-3-ethynyl-3,4-dihydroxytetrahydrofuran-2-yl)methoxy)malonic acid], for which the IC50 is 1.1 nM.

One may read the IC50 as the concentration at which inhibition is half-maximal.
